target: T1, ULK1 (Homo sapiens, UniProt O75385); test: ULK1 inhibition assay; type: biochemical; conditions: * = tested as a mixture of regioisomers
T1 sequence (O75385 1-1050): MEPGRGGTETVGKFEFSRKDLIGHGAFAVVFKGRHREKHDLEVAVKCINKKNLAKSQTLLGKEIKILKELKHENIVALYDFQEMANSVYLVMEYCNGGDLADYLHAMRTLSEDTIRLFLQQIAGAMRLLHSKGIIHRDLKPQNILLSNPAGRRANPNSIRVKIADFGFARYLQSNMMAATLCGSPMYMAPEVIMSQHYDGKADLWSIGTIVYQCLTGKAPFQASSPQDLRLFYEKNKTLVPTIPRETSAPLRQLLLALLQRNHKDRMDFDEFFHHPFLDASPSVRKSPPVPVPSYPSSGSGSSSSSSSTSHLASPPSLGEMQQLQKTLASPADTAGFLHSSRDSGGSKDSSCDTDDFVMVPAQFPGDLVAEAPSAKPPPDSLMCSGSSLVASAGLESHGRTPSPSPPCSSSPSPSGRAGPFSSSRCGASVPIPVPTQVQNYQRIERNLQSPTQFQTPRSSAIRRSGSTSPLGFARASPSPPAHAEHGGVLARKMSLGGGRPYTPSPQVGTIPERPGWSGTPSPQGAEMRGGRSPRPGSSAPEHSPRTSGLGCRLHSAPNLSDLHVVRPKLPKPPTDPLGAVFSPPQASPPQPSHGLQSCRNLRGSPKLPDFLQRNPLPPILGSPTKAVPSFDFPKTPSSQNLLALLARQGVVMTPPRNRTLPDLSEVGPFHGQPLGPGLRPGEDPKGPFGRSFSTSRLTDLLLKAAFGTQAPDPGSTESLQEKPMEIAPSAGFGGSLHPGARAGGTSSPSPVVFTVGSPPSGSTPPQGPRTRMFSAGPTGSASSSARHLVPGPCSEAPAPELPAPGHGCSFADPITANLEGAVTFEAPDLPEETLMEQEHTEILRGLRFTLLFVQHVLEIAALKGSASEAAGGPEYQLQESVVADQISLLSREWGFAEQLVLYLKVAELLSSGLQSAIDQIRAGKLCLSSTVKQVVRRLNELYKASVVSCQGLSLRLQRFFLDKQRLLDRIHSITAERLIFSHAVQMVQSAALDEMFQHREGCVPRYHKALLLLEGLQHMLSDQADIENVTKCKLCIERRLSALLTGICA

Row | SMILES | IC50 [nM]
1 | O=C1CCc2cc(Nc3ncc(C(F)(F)F)c(N(CCO)CCO)n3)ccc2N1 [Compound 212a] | > 2000
2 | FC(F)(F)c1cnc(Nc2ccc3c(c2)OCO3)nc1NC1CC1 [Compound 213] | < 200
3 | N=c1ccon1-c1ncc(C(F)(F)F)c(NC2CC2)n1 [Compound 214b] | > 2000
4 | O=C1CCc2cc(Nc3ncc(C(F)(F)F)c(NCC4CC4)n3)ccc2N1 [Compound 216] | < 200
5 | Nc1nc(Nc2cnc3[nH]ccc3c2)ncc1C(F)(F)F [Compound 217] | > 2000
6 | COC(=O)CNc1nc(Nc2ccc3c(c2)CCC(=O)N3)ncc1C(F)(F)F [Compound 218] | > 2000
7 | CCONc1nc(Nc2ccc3c(c2)CCC(=O)N3)ncc1C(F)(F)F [Compound 219] | > 2000
8 | CC1(Nc2nc(Nc3ccc4c(c3)CCC(=O)N4)ncc2C(F)(F)F)COC1 [Compound 220a] | > 2000
9 | CN(C)c1nc(Nc2ccc3c(c2)CCC(=O)N3)ncc1C(F)(F)F [Compound 220b] | < 200
10 | COCC(C)(CN(C)C)Nc1nc(Nc2ccc3c(c2)CCC(=O)N3)ncc1C(F)(F)F (centres unmarked) [Compound 220c] | > 2000
11 | FC(F)(F)c1cnc(Nc2ccnnc2)nc1NC1CC1 [Compound 221a] | < 200
12 | O=C1CCc2cc(Nc3ncnc(NC4CC4)n3)ccc2N1 [Compound 225] | > 2000
13 | O=C1CCc2cc(Nc3ncc(C(F)(F)F)c(OC4COC4)n3)ccc2N1 [Compound 231a] | < 200
14 | O=C1CCc2cc(Nc3ncc(C(F)(F)F)c(O)n3)ccc2N1 [Compound 231b] | > 2000
15 | O=c1[nH]c2ccc(Nc3ncc(Br)c(Nc4ccc5[nH]c(=O)[nH]c5c4)n3)cc2[nH]1 [Compound 233] | < 200
16 | COc1cc(Nc2ncc(Cl)c(N(C)C(=O)c3ccccc3O)n2)cc(OC)c1OC [Compound 234b] | 200 to 2000
17 | O=C1Cc2cc(Nc3ncc(C(F)(F)F)c(NC4CC4)n3)ccc2N1 [Compound 240] | < 200
18 | CNC(=O)c1cccc(Oc2nc(Nc3cc(OC)c(OC)c(OC)c3)ncc2Br)c1 [Compound 242] | 200 to 2000
19 | COc1cc(Nc2ncc(Br)c(Oc3ccccc3C(=O)N(C)C)n2)cc(OC)c1OC [Compound 245] | < 200
20 | C[C@@H]1COCCN1c1nc(Nc2ccc3c(c2)CCC(=O)N3)ncc1C(F)(F)F [Compound 247] | < 200
21 | COc1cc(Nc2ncc(Br)c(Oc3ccccc3C(N)=O)n2)cc(OC)c1OC [Compound 249] | < 200

Row | SMILES | IC50 [nM]
22 | COc1cc(Nc2ncc(Br)c(Oc3ccccc3NC(C)=O)n2)cc(OC)c1OC [Compound 254a] | < 200
23 | COc1cc(Nc2ncc(Br)c(Oc3ccccc3N)n2)cc(OC)c1OC [Compound 254b] | < 200
24 | CNC(=O)c1c(O)cccc1Oc1nc(Nc2cc(OC)c(OC)c(OC)c2)ncc1Br [Compound 257] | < 200
25 | FC1(F)Oc2ccc(Nc3ncc(C(F)(F)F)c(NC4CC4)n3)cc2O1 [Compound 258] | > 2000
26 | O=C1CCc2cc(Nc3ncc(C(F)(F)F)c(OCCNC(=O)OCc4ccccc4)n3)ccc2N1 [Compound 261] | > 2000
27 | FC(F)(F)c1cnc(NCc2cccc3ccccc23)nc1NC1CC1 [Compound 262] | > 2000
28 | O=C1CCc2cc(Nc3nc(NC4CC4)c4ccccc4n3)ccc2N1 [Compound 263] | > 2000
29 | COc1cc(Nc2ncc(Br)c(Oc3ccccc3)n2)cc(OC)c1OC [Compound 266] | < 200
30 | COCc1ccccc1Oc1nc(Nc2cc(OC)c(OC)c(OC)c2)ncc1Br [Compound 274] | < 200
31 | FC(F)(F)c1cnc(Nc2cccc3ncccc23)nc1NC1CC1 [Compound 278] | > 2000
32 | COc1cc(Nc2ncc(Br)c(Oc3ccccc3NC(=O)C3CC3)n2)cc(OC)c1OC [Compound 281] | < 200
33 | COc1cc(Nc2ncc(Br)c(Oc3ccccc3CN(C)C)n2)cc(OC)c1OC [Compound 283] | > 2000
34 | O=[N+]([O-])c1cnc(NC2CC2)nc1NC1CC1 [Compound 291b] | > 2000
35 | COc1cc(Nc2ncc(Br)c(Nc3ccccc3)n2)cc(OC)c1OC [Compound 293] | < 200
36 | O=C1CCc2cc(Nc3ncc(C(F)(F)F)c(Oc4ccccc4)n3)ccc2N1 [Compound 300a] | > 2000
37 | O=C1CCc2cc(Nc3nc(Oc4ccccc4)ncc3C(F)(F)F)ccc2N1 [Compound 300b] | > 2000
38 | O=C1CCCc2cc(Nc3ncc(C(F)(F)F)c(NC4CC4)n3)ccc21 [Compound 301] | < 200
39 | FC(F)(F)c1cnc(Nc2ccc(Nc3ncc(C(F)(F)F)c(NC4CC4)n3)cc2)nc1NC1CC1 [Compound 304b] | > 2000
40 | FC(F)(F)c1cnc(Nc2ccc3c(c2)CCNC3)nc1NC1CC1 [Compound 309] | < 200
41 | CC(C)(C)OC(=O)NCCCNc1nc(Nc2ccc3c(c2)CCC(=O)N3)ncc1C(F)(F)F [Compound 310] | < 200

Second part, the compound after the results:

Row | IC50 [nM] | SMILES
42 | < 200 | OC1Nc2ccc(Nc3ncc(C(F)(F)F)c(NC4CC4)n3)cc2O1 (centres unmarked) [Compound 208b]
43 | 200 to 2000 | Nc1nc(Nc2ccc3c(c2)CCC(=O)N3)ncc1C(F)(F)F [Compound 209]
44 | 200 to 2000 | O=C1CCc2cc(Nc3ncc(C(F)(F)F)c(OCCNCCO)n3)ccc2N1 [Compound 212b]
45 | 200 to 2000 | FC(F)(F)c1cnc(Nc2ccon2)nc1NC1CC1 [Compound 214a]
46 | < 200 | O=C1CCc2cc(Nc3ncc(C(F)(F)F)c(N4CC(F)(F)C4)n3)ccc2N1 [Compound 215]
47 | > 2000 | c1cc(NC2CC2)nc(Nc2ccc3c(c2)OCCO3)n1 [Compound 224]
48 | 200 to 2000 | COC(=O)[C@@H]1CCCN1c1nc(Nc2ccc3c(c2)CCC(=O)N3)ncc1C(F)(F)F [Compound 227]
49 | > 2000 | FC(F)(F)c1cnc(N2CCCC2c2cccnc2)nc1NC1CC1 (centres unmarked) [Compound 228]
50 | > 2000 | O=c1[nH]c2ccc(Nc3nccc(NC4CC4)n3)cc2[nH]1 [Compound 232]
51 | > 2000 | CNC(=O)c1ccccc1Oc1nc(Nc2cc(OC)c(OC)c(OC)c2)ncc1Cl [Compound 234a]
52 | < 200 | O=c1[nH]c2ccc(Nc3ncc(Br)c(NC4CC4)n3)cc2[nH]1 [Compound 236]
53 | 200 to 2000 | CNS(=O)(=O)c1ccccc1Nc1nc(Nc2cc(OC)c(OC)c(OC)c2)ncc1Br [Compound 237]
54 | > 2000 | CNC(=O)c1ccccc1Oc1ccnc(Nc2cc(OC)c(OC)c(OC)c2)n1 [Compound 239]
55 | 200 to 2000 | Oc1ccc(CCNc2ncc(C(F)(F)F)c(NC3CC3)n2)cc1 [Compound 246]
56 | < 200 | CNC(=O)c1cccc(OC)c1Oc1nc(Nc2cc(OC)c(OC)c(OC)c2)ncc1Br [Compound 252]
57 | < 200 | CCC(=O)c1ccccc1Oc1nc(Nc2cc(OC)c(OC)c(OC)c2)ncc1Br [Compound 260]
58 | < 200 | FC(F)(F)c1cnc(Nc2ccc3ncccc3c2)nc1NC1CC1 [Compound 264]

Row | IC50 [nM] | SMILES
59 | 200 to 2000 | CNC(=O)c1cccc(Oc2nc(Nc3ccc4c(c3)CCC(=O)N4)ncc2Br)c1 [Compound 268]
60 | 200 to 2000 | COc1cc(Nc2ncc(Br)c(Oc3ccccc3C(=O)NC3CC3)n2)cc(OC)c1OC [Compound 270]
61 | < 200 | O=C1CCc2cc(Nc3ncc(C(F)(F)F)c(Nc4cc(C5CCC5)[nH]n4)n3)ccc2N1 [Compound 271]
62 | < 200 | FC(F)(F)c1cnc(Nc2cnc3ccccc3c2)nc1NC1CC1 [Compound 275]
63 | < 200 | COc1cc(Nc2ncc(Br)c(Oc3ccccc3C(=O)N3CCCC3)n2)cc(OC)c1OC [Compound 277]
64 | > 2000 | O=C1CCc2cc(Nc3ncc(C(=O)O)c(NC4CC4)n3)ccc2N1 [Compound 286]
65 | > 2000 | N#Cc1cnc(NC2CC2)nc1Nc1ccc2c(c1)CCC(=O)N2 [Compound 287]
66 | > 2000 | COc1cc(Nc2ncc(Br)c(Oc3ccccc3-c3nc(C)co3)n2)cc(OC)c1OC [Compound 290]
67 | < 200 | COC(=O)Nc1ccccc1Oc1nc(Nc2cc(OC)c(OC)c(OC)c2)ncc1Br [Compound 296]
68 | < 200 | FC(F)(F)c1cnc(Nc2ccc3nc[nH]c3c2)nc1Nc1cc(C2CCC2)[nH]n1 [Compound 297]
69 | < 200 | COc1cc(Nc2ncc(Br)c(Oc3ccccc3C(F)(F)F)n2)cc(OC)c1OC [Compound 299]
70 | < 200 | COc1cc(Nc2ncc(Br)c(Nc3ccccc3CO)n2)cc(OC)c1OC [Compound 303]
71 | < 200 | Nc1ccc(Nc2ncc(C(F)(F)F)c(NC3CC3)n2)cc1 [Compound 304a]
72 | < 200 | O=C(C1CC1)N(C(=O)C1CC1)c1ccc(Nc2ncc(C(F)(F)F)c(NC3CC3)n2)cc1 [Compound 311]
73 | < 200 | O=C(Nc1ccc(Nc2ncc(C(F)(F)F)c(NC3CC3)n2)cc1)C1CC1 [Compound 312]
74 | < 200 | NCCCNc1nc(Nc2ccc3c(c2)CCC(=O)N3)ncc1C(F)(F)F [Compound 313]

Source: patent US20230130766A1 (SALK INSTITUTE FOR BIOLOGICAL STUDIES, priority 2020, published 2023)
